Patent publication US7592188B2, “Live cell biosensors” (The Scripps Research Institute, priority 2004, dated 2009)

Experiments:
Cdc42 = target: T1, Cdc42 (Homo sapiens, UniProt P60953); test: Analysis of Cdc42 activation: fluorescence of dye-labeled WASP fragment; format: binding
T1 construct: 6His; made in house; host or cells: E. coli BL21DE3, only by the words 'analogous procedures' to the CBD preparation
Description: Analysis of Cdc42 Activation. A solution of the WASP conjugate (300 nM) in a assay buffer (50 mM Tris-HCl, pH 7.6, 50 mM NaCl, 5 mM MgCl2, 1 mM DTT) was mixed 1:1 (v/v) with solutions of Cdc42, pre-equilibrated with 10 mM GDP or GTPγS as described below. Emission at 630 nm and excitation at 600 nm were used to acquire excitation and emission spectra, respectively. For nucleotide dependence, Cdc42 (500 nM) was preincubated with varying concentrations of GTPγS (1-500 nM).

[1] = Dye photo-bleaching under tungsten lamp irradiation; format: physicochemical
Description: Photo-bleaching. All samples contained 1 mM dye in a final volume of 10 mL. For nitrogen and oxygen saturation the samples were bubbled with solvent-saturated gas for 30 min. A 90 W halogen tungsten lamp was employed for irradiation, with a fan used for cooling. The temperature of samples was 25±1° C. during reactions. The absorption spectrum of each sample was measured before irradiation and after every 10 h period. For the trapping experiment thioanisole (1.0 M) was added to oxygen-saturated butanol solution of dye 1b. After 60 h of irradiation the reaction mixture was analyzed by GC-MS for products formed. The products, methylphenylsulfoxide and methylphenyl sulfone, were identified by comparison with authentic samples.
Dyes used in living cells must be photostable to provide many sequential images and to obtain sufficient light from minimal amounts of exogenous labeled material. The photostability of the new dyes was characterized by exposing them to constant illumination from a tungsten lamp filtered through glass, a broad spectrum light source that provided essentially equal intensity throughout the spectral range where the dyes would be irradiated in vivo. A fan was used to prevent heating, and dye solutions were adjusted for equal maximal absorbance, kept below 1 μM to minimize the inner filter effect. […] Photo-bleaching followed first-order kinetics in all cases.

Erk2 = test: Fluorescence response of dye-labeled Erk2 to phosphorylation; format: biochemical
Text: This Example illustrates that the dyes of the invention can be attached directly to a protein of interest (e.g. Erk), where the dyes respond to conformational changes and phosphorylation. In particular, the I-TBA-3CNPh dye was attached to cysteine 214 of the MAP kinase Erk2, where it responded to Erk phosphorylation. A structure for the I-TBA-3CNPh dye is provided below.
This model was based on tryptic digestion combined with mass spectroscopic sequencing of the labeled protein, and on docking studies. The lighter (yellow) residues represent two lysines undergoing hydrogen bonding with the dye, and a tryptophan interacting through π-π stacking. Phosphorylation of the purple residues altered the conformation of the protein, affecting the tryptophan interaction and perturbing some of the hydrogen bonds.

Cdc42 activation = test: Peripheral Cdc42 activation in cells treated with cytoskeletal agents; format: cell-based
Text: Microtubules or actin may direct Cdc42 activation to specific peripheral locations. This possibility was explored by treating cells with the microtubule-depolymerizing agents nocodazole and colchicine, or with cytochalasin D, an inhibitor of actin polymerization. […] Microtubules may therefore localize interactions between Cdc42 and guanine nucleotide exchange factors by directing vesicle trafficking or regulating events at adhesion complexes.

[2] = Quantum yield of triplet state formation; format: physicochemical; conditions: in ethanol
[3] = Photophysical properties of dyes in various solvents (absorbance, emission, quantum yield); format: physicochemical; parameters: ε × F / ε × Φ: unit not given here
Description: Analytical grade reagents were purchased from major suppliers. […] Emission and excitation spectra were obtained using a Spex Fluorolog 2 spectrofluorometer at 23° C. […] Demas et al., J. Phys. […] All operations with dyes were performed under dim light. Flasks containing dyes were wrapped with aluminum foil.

[4] = Water solubility and aggregation of dyes in water (absorbance spectra)
Description: Labeling was accomplished only by including greater than 5% DMSO as cosolvent.

T1 sequence (P60953 whole entry, species assumed, the tested form may be a part): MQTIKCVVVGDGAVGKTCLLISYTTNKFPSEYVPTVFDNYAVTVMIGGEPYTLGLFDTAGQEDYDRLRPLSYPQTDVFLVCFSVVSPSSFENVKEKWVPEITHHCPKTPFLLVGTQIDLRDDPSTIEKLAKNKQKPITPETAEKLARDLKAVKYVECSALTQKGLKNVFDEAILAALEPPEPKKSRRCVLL

CCN1/C(=C/C=C/C=C/C2=[N+](CCCCCC(=O)O)c3ccc(S(=O)(=O)O)cc3C2(C)C)C(C)(C)c2cc(S(=O)(=O)[O-])ccc21 [Cy5, reference compound]
change in fluorescence intensity of cyanine-labeled WASP fragment (Cdc42; control experiments, WASP fragment labeled with Cy3 or Cy5): no change in fluorescence intensity was observed | Absolute rate constant of dye photo-bleaching, kph × 10^6 ([1]; BuOH): 0.77 s^−1 | Absolute rate constant of dye photo-bleaching, kph × 10^6 ([1]; MeOH): 1.0 s^−1

CC1(C)/C(=C\C=C\C=C2C(=O)N(Cc3cccc(C#N)c3)C(=S)N(Cc3cccc(C#N)c3)C2=O)N(CCCNC(=O)CI)c2ccc(S(=O)(=O)O)cc21 [I-TBA-3CNPh]
fluorescence change of dye-labeled Erk2 (Erk2; incubation with MEK kinase and ATP): phosphorylation-induced increase in fluorescence

COc1cc2c(c(OC)c1OC)-c1ccc(OC)c(=O)cc1[C@@H](NC(C)=O)CC2 [colchicine]
effect on peripheral Cdc42 activation (Cdc42 activation): markedly affected peripheral Cdc42 activation

C=C1[C@@H](C)[C@H]2[C@H](Cc3ccccc3)NC(=O)[C@]23[C@H](OC(C)=O)/C=C/[C@@](C)(O)C(=O)[C@@H](C)C/C=C/[C@H]3[C@@H]1O [cytochalasin D]
effect on peripheral Cdc42 activation (Cdc42 activation): Only nocodazole and colchicine markedly affected peripheral Cdc42 activation

CCN1/C(=C\C=C\C=C2C(=O)N(C)C(=S)N(C)C2=O)Sc2ccccc21 [dye 1b, 1,3-Dimethyl-5-[(2E,4E)-4-(3-ethyl-1,3-benzothiazol-2(3H)-ylidene)-but-2-enylidene]-2-thioxodihydropyrimidine-4,6(1H,5H)-dione]
Absolute rate constant of dye photo-bleaching, kph × 10^6 ([1]; BuOH): 5.2 s^−1 | Absolute rate constant of dye photo-bleaching, kph × 10^6 ([1]; MeOH): 4.3 s^−1 | ΦT, quantum yield of triplet state formation [2]: 0.008 | Abs. λmax ([3]; solvent BuOH): 595 nm | Emission λmax ([3]; solvent BuOH): 613 nm | Φ (quantum yield of fluorescence) ([3]; solvent BuOH): 0.26 | ε (molar extinction coefficient) ([3]; solvent BuOH): (188000) | ε × F ([3]; solvent BuOH): 49000 | Abs. λmax ([3]; solvent C6H6): 600 nm | Emission λmax ([3]; solvent C6H6): 617 nm | Φ (quantum yield of fluorescence) ([3]; solvent C6H6): 0.37 | ε (molar extinction coefficient) ([3]; solvent C6H6): (184000) | ε × F ([3]; solvent C6H6): 68000 | Abs. λmax ([3]; solvent DMF): 595 nm | Emission λmax ([3]; solvent DMF): 613 nm | Φ (quantum yield of fluorescence) ([3]; solvent DMF): 0.32 | ε (molar extinction coefficient) ([3]; solvent DMF): (194000) | ε × F ([3]; solvent DMF): 62000 | Abs. λmax ([3]; solvent MeOH): 583 nm | Emission λmax ([3]; solvent MeOH): 606 nm | Φ (quantum yield of fluorescence) ([3]; solvent MeOH): 0.13 | ε (molar extinction coefficient) ([3]; solvent MeOH): (134000) | ε × F ([3]; solvent MeOH): 18000 | Abs. λmax ([3]; solvent OcOH): 598 nm | Emission λmax ([3]; solvent OcOH): 615 nm | Φ (quantum yield of fluorescence) ([3]; solvent OcOH): 0.52 | ε (molar extinction coefficient) ([3]; solvent OcOH): (220000) | ε × F ([3]; solvent OcOH): 115000

CN1C(=O)C(=C/C=C/C=C2/Sc3ccccc3N2CCCS(=O)(=O)[O-])C(=O)N(C)C1=S.[Na+] [dye 1c, Sodium 3-[(2E)-2-[(2E)-4-(1,3-Dimethyl-4,6-dioxo-2-thioxotetrahydro-pyrimidin-5(2H)-ylidene)but-2-enylidene]-1,3-benzothiazol-3(2H)-yl]propane-1-sulfonate]
water solubility ([4]; in words): significantly improved

CN1C(=O)C(=C/C=C/C=C2\N(C)c3ccccc3C2(C)C)C(=O)N(C)C1=S [dye 3a, 1,3-Dimethyl-2-thioxo-5-[(2E,4Z)-4-(1,3,3-trimethyl-1,3-dihydro-2H-indol-2-ylidene)but-2-enylidene]dihydropyrimidine-4,6(1H,5,H)-dione]
Absolute rate constant of dye photo-bleaching, kph × 10^6 ([1]; BuOH): 0.78 s^−1 | Absolute rate constant of dye photo-bleaching, kph × 10^6 ([1]; MeOH): 0.18 s^−1 | ΦT, quantum yield of triplet state formation [2]: 0.003 | Abs. λmax ([3]; solvent BuOH): 589 nm | Emission λmax ([3]; solvent BuOH): 609 nm | Φ (quantum yield of fluorescence) ([3]; solvent BuOH): 0.61 | ε (molar extinction coefficient) ([3]; solvent BuOH): (190000) | ε × F ([3]; solvent BuOH): 116000 | Abs. λmax ([3]; solvent C6H6): 584 nm | Emission λmax ([3]; solvent C6H6): 605 nm | Φ (quantum yield of fluorescence) ([3]; solvent C6H6): 0.20 | ε (molar extinction coefficient) ([3]; solvent C6H6): (127000) | ε × F ([3]; solvent C6H6): 26000 | Abs. λmax ([3]; solvent DMF): 589 nm | Emission λmax ([3]; solvent DMF): 611 nm | Φ (quantum yield of fluorescence) ([3]; solvent DMF): 0.94 | ε (molar extinction coefficient) ([3]; solvent DMF): (183000) | ε × F ([3]; solvent DMF): 172000 | Abs. λmax ([3]; solvent MeOH): 583 nm | Emission λmax ([3]; solvent MeOH): 603 nm | Φ (quantum yield of fluorescence) ([3]; solvent MeOH): 0.26 | ε (molar extinction coefficient) ([3]; solvent MeOH): (173000) | ε × F ([3]; solvent MeOH): 45000 | Abs. λmax ([3]; solvent OcOH): 590 nm | Emission λmax ([3]; solvent OcOH): 609 nm | Φ (quantum yield of fluorescence) ([3]; solvent OcOH): 0.99 | ε (molar extinction coefficient) ([3]; solvent OcOH): (180000) | ε × F ([3]; solvent OcOH): 178000

CN1\C(=C/C=C/C=C2/C(=O)c3ccccc3S2(=O)=O)C(C)(C)c2ccccc21 [dye 4a, (2Z)-2-[(2E,4Z)-4-(1,3,3-Trimethyl-1,3-dihydro-2H-indol-2-ylidene)-but-2-enylidene]-1-benzothiophen-3(2H)-one 1,1-Dioxide]
Absolute rate constant of dye photo-bleaching, kph × 10^6 ([1]; BuOH): 0.65 s^−1 | Absolute rate constant of dye photo-bleaching, kph × 10^6 ([1]; MeOH): 0.28 s^−1 | Abs. λmax ([3]; solvent BuOH): 587 nm | Emission λmax ([3]; solvent BuOH): 618 nm | Φ (quantum yield of fluorescence) ([3]; solvent BuOH): 0.54 | ε (molar extinction coefficient) ([3]; solvent BuOH): (134000) | ε × F ([3]; solvent BuOH): 72000 | Abs. λmax ([3]; solvent C6H6): 571 nm | Emission λmax ([3]; solvent C6H6): 603 nm | Φ (quantum yield of fluorescence) ([3]; solvent C6H6): 0.42 | ε (molar extinction coefficient) ([3]; solvent C6H6): (109000) | ε × F ([3]; solvent C6H6): 46000 | Abs. λmax ([3]; solvent DMF): 586 nm | Emission λmax ([3]; solvent DMF): 615 nm | Φ (quantum yield of fluorescence) ([3]; solvent DMF): 0.97 | ε (molar extinction coefficient) ([3]; solvent DMF): (143000) | ε × F ([3]; solvent DMF): 140000 | Abs. λmax ([3]; solvent MeOH): 586 nm | Emission λmax ([3]; solvent MeOH): 615 nm | Φ (quantum yield of fluorescence) ([3]; solvent MeOH): 0.08 | ε (molar extinction coefficient) ([3]; solvent MeOH): (143000) | ε × F ([3]; solvent MeOH): 12000 | Abs. λmax ([3]; solvent OcOH): 587 nm | Emission λmax ([3]; solvent OcOH): 617 nm | Φ (quantum yield of fluorescence) ([3]; solvent OcOH): 0.98 | ε (molar extinction coefficient) ([3]; solvent OcOH): (125000) | ε × F ([3]; solvent OcOH): 123000

COC(=O)Nc1nc2ccc(C(=O)c3cccs3)cc2[nH]1 [nocodazole]
effect on peripheral Cdc42 activation (Cdc42 activation): markedly affected peripheral Cdc42 activation

Sodium 3-{(2Z)-5-2-[(2E,4Z)-4-(1,1-Dioxido-3-oxo-1-benzothien-2(3H)-ylidene)but-2-enylidene]-3,3-dimethyl-2,3-dihydro-1H-indol-1-yl}propane-1-sulfonate [dye 4b]
concentration at which dye did not aggregate ([4]; in water, absorbance spectrum): greater than 250 μM

labeled Erk2 protein: MAP kinase Erk2 with I-TBA-3CNPh dye attached to cysteine 214
phosphorylation activity of labeled Erk2 (Erk2; Western blots, substrate Elk): retains phosphorylation activity

B1: labeled WASP fragment: WASP fragment (residues 201-320, F271C) derivatized with S—SO dye 2e (conjugate)
chain: DIQNPDITSSRYRGLPAPGPSPADKKRSGKKKISKADIGAPSGFKHVSHVGWDPQNGFDVNNLDPDLRSLCSRAGISEAQLTDAETSKLIYDFIEDQGGLEAVRQEMRRQEPLPPPPPPS
modifications: left off: small tags and cut ends
notes: WASP fragment (residues 201-320, F271C) derivatized with S—SO dye 2e
increase in fluorescence intensity (Cdc42; incubated with activated Cdc42): 300%
